ChEMBL document CHEMBL5634115, “Exploring novel anticancer pyrazole benzenesulfonamides featuring tail approach strategy as carbonic anhydrase inhibitors” (Eur J Med Chem, 2023)

Key:
Assay in all cases: cells
CCRF-CEM [1] = format: functional; settings: Homo sapiens, time 48 hrs
Description: Growth inhibition of human CCRF-CEM cells measured after 48 hrs by sulforhodamine B assay

K562 [2] = format: functional; settings: Homo sapiens, time 48 hrs
Description: Growth inhibition of human K562 cells measured after 48 hrs by sulforhodamine B assay

SR [3] = format: functional; settings: Homo sapiens, time 48 hrs
Description: Growth inhibition of human SR cells measured after 48 hrs by sulforhodamine B assay

A549 = format: functional; settings: Homo sapiens, time 48 hrs
Description: Growth inhibition of human A549 cells measured after 48 hrs by sulforhodamine B assay

NCI-H23 [4] = format: functional; settings: Homo sapiens, time 48 hrs
Description: Growth inhibition of human NCI-H23 cells measured after 48 hrs by sulforhodamine B assay

NCI-H322M = format: functional; settings: Homo sapiens, time 48 hrs
Description: Growth inhibition of human NCI-H322M cells measured after 48 hrs by sulforhodamine B assay

NCI-H460 = format: functional; settings: Homo sapiens, time 48 hrs
Description: Growth inhibition of human NCI-H460 cells measured after 48 hrs by sulforhodamine B assay

NCI-H522 [5] = format: functional; settings: Homo sapiens, time 48 hrs
Description: Growth inhibition of human NCI-H522 cells measured after 48 hrs by sulforhodamine B assay

HCT-116 [6] = format: functional; settings: Homo sapiens, time 48 hrs
Description: Growth inhibition of human HCT-116 cells measured after 48 hrs by sulforhodamine B assay

HCT-15 = format: functional; settings: Homo sapiens, time 48 hrs
Description: Growth inhibition of human HCT-15 cells measured after 48 hrs by sulforhodamine B assay

KM12 [7] = format: functional; settings: Homo sapiens, time 48 hrs
Description: Growth inhibition of human KM12 cells measured after 48 hrs by sulforhodamine B assay

SF-268 [8] = format: functional; settings: Homo sapiens, time 48 hrs
Description: Growth inhibition of human SF-268 cells measured after 48 hrs by sulforhodamine B assay

U-251 = format: functional; settings: Homo sapiens, time 48 hrs
Description: Growth inhibition of human U-251 cells measured after 48 hrs by sulforhodamine B assay

M14 = format: functional; settings: Homo sapiens, time 48 hrs
Description: Growth inhibition of human M14 cells measured after 48 hrs by sulforhodamine B assay

MDA-MB-435 = format: functional; settings: Homo sapiens, time 48 hrs
Description: Growth inhibition of human MDA-MB-435 cells measured after 48 hrs by sulforhodamine B assay

SK-MEL-28 [9] = format: functional; settings: Homo sapiens, time 48 hrs
Description: Growth inhibition of human SK-MEL-28 cells measured after 48 hrs by sulforhodamine B assay

SK-MEL-5 [10] = format: functional; settings: Homo sapiens, time 48 hrs
Description: Growth inhibition of human SK-MEL-5 cells measured after 48 hrs by sulforhodamine B assay

UACC-257 = format: functional; settings: Homo sapiens, time 48 hrs
Description: Growth inhibition of human UACC-257 cells measured after 48 hrs by sulforhodamine B assay

UACC-62 = format: functional; settings: Homo sapiens, time 48 hrs
Description: Growth inhibition of human UACC-62 cells measured after 48 hrs by sulforhodamine B assay

IGROV-1 = format: functional; settings: Homo sapiens, time 48 hrs
Description: Growth inhibition of human IGROV-1 cells measured after 48 hrs by sulforhodamine B assay

OVCAR-4 = format: functional; settings: Homo sapiens, time 48 hrs
Description: Growth inhibition of human OVCAR-4 cells measured after 48 hrs by sulforhodamine B assay

OVCAR-5 = format: functional; settings: Homo sapiens, time 48 hrs
Description: Growth inhibition of human OVCAR-5 cells measured after 48 hrs by sulforhodamine B assay

NCI/ADR-RES [11] = format: functional; settings: Homo sapiens, time 48 hrs
Description: Growth inhibition of human NCI/ADR-RES cells measured after 48 hrs by sulforhodamine B assay

SN12C = format: functional; settings: Homo sapiens, time 48 hrs
Description: Growth inhibition of human SN12C cells measured after 48 hrs by sulforhodamine B assay

TK-10 = format: functional; settings: Homo sapiens, time 48 hrs
Description: Growth inhibition of human TK-10 cells measured after 48 hrs by sulforhodamine B assay

UO-31 = format: functional; settings: Homo sapiens, time 48 hrs
Description: Growth inhibition of human UO-31 cells measured after 48 hrs by sulforhodamine B assay

PC-3 [12] = format: functional; settings: Homo sapiens, time 48 hrs
Description: Growth inhibition of human PC-3 cells measured after 48 hrs by sulforhodamine B assay

DU-145 [13] = format: functional; settings: Homo sapiens, time 48 hrs
Description: Growth inhibition of human DU-145 cells measured after 48 hrs by sulforhodamine B assay

BT-549 [14] = format: functional; settings: Homo sapiens, time 48 hrs
Description: Growth inhibition of human BT-549 cells measured after 48 hrs by sulforhodamine B assay

RPMI-8226 = format: functional; settings: Homo sapiens, time 48 hrs
Description: Cytostatic activity against human RPMI-8226 cells assessed as total growth inhibition measured after 48 hrs by sulforhodamine B assay

EKVX [15] = format: functional; settings: Homo sapiens, time 48 hrs
Description: Cytostatic activity against human EKVX cells assessed as total growth inhibition measured after 48 hrs by sulforhodamine B assay

HOP-92 = format: functional; settings: Homo sapiens, time 48 hrs
Description: Cytostatic activity against human HOP-92 cells assessed as total growth inhibition measured after 48 hrs by sulforhodamine B assay

NCI-H23 [16] = format: functional; settings: Homo sapiens, time 48 hrs; remark: listed apart in the source
Description: Cytostatic activity against human NCI-H23 cells assessed as total growth inhibition measured after 48 hrs by sulforhodamine B assay

NCI-H522 [17] = format: functional; settings: Homo sapiens, time 48 hrs; remark: listed apart in the source
Description: Cytostatic activity against human NCI-H522 cells assessed as total growth inhibition measured after 48 hrs by sulforhodamine B assay

KM12 [18] = format: functional; settings: Homo sapiens, time 48 hrs; remark: listed apart in the source
Description: Cytostatic activity against human KM12 cells assessed as total growth inhibition measured after 48 hrs by sulforhodamine B assay

SW-620 [19] = format: functional; settings: Homo sapiens, time 48 hrs
Description: Cytostatic activity against human SW620 cells assessed as total growth inhibition measured after 48 hrs by sulforhodamine B assay

SF-268 [20] = format: functional; settings: Homo sapiens, time 48 hrs; remark: listed apart in the source
Description: Cytostatic activity against human SF-268 cells assessed as total growth inhibition measured after 48 hrs by sulforhodamine B assay

SNB-19 = format: functional; settings: Homo sapiens, time 48 hrs
Description: Cytostatic activity against human SNB-19 cells assessed as total growth inhibition measured after 48 hrs by sulforhodamine B assay

SK-MEL-2 = format: functional; settings: Homo sapiens, time 48 hrs
Description: Cytostatic activity against human SK-MEL-2 cells assessed as total growth inhibition measured after 48 hrs by sulforhodamine B assay

SK-MEL-28 [21] = format: functional; settings: Homo sapiens, time 48 hrs; remark: listed apart in the source
Description: Cytostatic activity against human SK-MEL-28 cells assessed as total growth inhibition measured after 48 hrs by sulforhodamine B assay

SK-MEL-5 [22] = format: functional; settings: Homo sapiens, time 48 hrs; remark: listed apart in the source
Description: Cytostatic activity against human SK-MEL-5 cells assessed as total growth inhibition measured after 48 hrs by sulforhodamine B assay

RXF 393 = format: functional; settings: Homo sapiens, time 48 hrs
Description: Cytostatic activity against human RXF 393 cells assessed as total growth inhibition measured after 48 hrs by sulforhodamine B assay

PC-3 [23] = format: functional; settings: Homo sapiens, time 48 hrs; remark: listed apart in the source
Description: Cytostatic activity against human PC-3 cells assessed as total growth inhibition measured after 48 hrs by sulforhodamine B assay

DU-145 [24] = format: functional; settings: Homo sapiens, time 48 hrs; remark: listed apart in the source
Description: Cytostatic activity against human DU-145 cells assessed as total growth inhibition measured after 48 hrs by sulforhodamine B assay

Hs-578T = format: functional; settings: Homo sapiens, time 48 hrs
Description: Cytostatic activity against human Hs-578T cells assessed as total growth inhibition measured after 48 hrs by sulforhodamine B assay

CCRF-CEM [25] = settings: Homo sapiens, 48 h, read-out: LC50
Description: Cytotoxicity activity against human CCRF-CEM cells assessed as reduction in cell growth measured after 48 hrs by sulforhodamine B assay

K562 [26] = settings: Homo sapiens, K562, 48 h, read-out: LC50
Description: Cytotoxicity activity against human K562 cells assessed as reduction in cell growth measured after 48 hrs by sulforhodamine B assay

MOLT-4 = settings: Homo sapiens, MOLT-4, 48 h, read-out: LC50
Description: Cytotoxicity activity against human MOLT-4 cells assessed as reduction in cell growth measured after 48 hrs by sulforhodamine B assay

SR [27] = settings: Homo sapiens, 48 h, read-out: LC50
Description: Cytotoxicity activity against human SR cells assessed as reduction in cell growth measured after 48 hrs by sulforhodamine B assay

EKVX [28] = settings: Homo sapiens, 48 h, read-out: LC50
Description: Cytotoxicity activity against human EKVX cells assessed as reduction in cell growth measured after 48 hrs by sulforhodamine B assay

HCT-116 [29] = settings: Homo sapiens, HCT-116, 48 h, read-out: LC50
Description: Cytotoxicity activity against human HCT-116 cells assessed as reduction in cell growth measured after 48 hrs by sulforhodamine B assay

SW-620 [30] = settings: Homo sapiens, SW-620, 48 h, read-out: LC50
Description: Cytotoxicity activity against human SW620 cells assessed as reduction in cell growth measured after 48 hrs by sulforhodamine B assay

SF-268 [31] = settings: Homo sapiens, SF-268, 48 h, read-out: LC50
Description: Cytotoxicity activity against human SF-268 cells assessed as reduction in cell growth measured after 48 hrs by sulforhodamine B assay

SF-539 = settings: Homo sapiens, SF-539, 48 h, read-out: LC50
Description: Cytotoxicity activity against human SF-539 cells assessed as reduction in cell growth measured after 48 hrs by sulforhodamine B assay

SK-MEL-28 [32] = settings: Homo sapiens, SK-MEL-28, 48 h, read-out: LC50
Description: Cytotoxicity activity against human SK-MEL-28 cells assessed as reduction in cell growth measured after 48 hrs by sulforhodamine B assay

OVCAR-3 = settings: Homo sapiens, OVCAR-3, 48 h, read-out: LC50
Description: Cytotoxicity activity against human OVCAR-3 cells assessed as reduction in cell growth measured after 48 hrs by sulforhodamine B assay

NCI/ADR-RES [33] = settings: Homo sapiens, 48 h, read-out: LC50
Description: Cytotoxicity activity against human NCI/ADR-RES cells assessed as reduction in cell growth measured after 48 hrs by sulforhodamine B assay

SK-OV-3 = settings: Homo sapiens, SK-OV-3, 48 h, read-out: LC50
Description: Cytotoxicity activity against human SK-OV-3 cells assessed as reduction in cell growth measured after 48 hrs by sulforhodamine B assay

786-0 = settings: Homo sapiens, 786-0, 48 h, read-out: LC50
Description: Cytotoxicity activity against human 786-0 cells assessed as reduction in cell growth measured after 48 hrs by sulforhodamine B assay

CAKI-1 = settings: Homo sapiens, CAKI-1, 48 h, read-out: LC50
Description: Cytotoxicity activity against human CAKI-1 cells assessed as reduction in cell growth measured after 48 hrs by sulforhodamine B assay

DU-145 [34] = settings: Homo sapiens, DU-145, 48 h, read-out: LC50
Description: Cytotoxicity activity against human DU-145 cells assessed as reduction in cell growth measured after 48 hrs by sulforhodamine B assay

MCF7 = settings: Homo sapiens, MCF7, 48 h, read-out: LC50
Description: Cytotoxicity activity against human MCF7 cells assessed as reduction in cell growth measured after 48 hrs by sulforhodamine B assay

BT-549 [35] = settings: Homo sapiens, BT-549, 48 h, read-out: LC50
Description: Cytotoxicity activity against human BT-549 cells assessed as reduction in cell growth measured after 48 hrs by sulforhodamine B assay

T47D = settings: Homo sapiens, 48 h, read-out: LC50
Description: Cytotoxicity activity against human T47D cells assessed as reduction in cell growth measured after 48 hrs by sulforhodamine B assay

## CCOC(=O)c1ccc(N/N=C/c2cn(-c3ccc(S(N)(=O)=O)cc3)nc2-c2ccc(C)cc2)cc1
CCRF-CEM [1]
  GI50: 3.82 µM
K562 [2]
  GI50: 2.88 µM
SR [3]
  GI50: 2.65 µM
A549
  GI50: 4.07 µM
NCI-H23 [4]
  GI50: 3.26 µM
NCI-H322M
  GI50: 5.38 µM
NCI-H460
  GI50: 2.43 µM
NCI-H522 [5]
  GI50: 2.07 µM
HCT-116 [6]
  GI50: 3.11 µM
HCT-15
  GI50: 1.87 µM
KM12 [7]
  GI50: 2.1 µM
SF-268 [8]
  GI50: 4.07 µM
U-251
  GI50: 4.23 µM
M14
  GI50: 1.75 µM
MDA-MB-435
  GI50: 2.87 µM
SK-MEL-28 [9]
  GI50: 4.5 µM
SK-MEL-5 [10]
  GI50: 2.99 µM
UACC-257
  GI50: 13.2 µM
UACC-62
  GI50: 5.66 µM
IGROV-1
  GI50: 5.13 µM
OVCAR-4
  GI50: 7.08 µM
OVCAR-5
  GI50: 4.29 µM
NCI/ADR-RES [11]
  GI50: 2.94 µM
SN12C
  GI50: 16 µM
TK-10
  GI50: 24.5 µM
UO-31
  GI50: 2.71 µM
PC-3 [12]
  GI50: 3.13 µM
DU-145 [13]
  GI50: 5.06 µM
BT-549 [14]
  GI50: 10.8 µM
RPMI-8226
  TGI: 3.24 µM
EKVX [15]
  TGI: 3.17 µM
HOP-92
  TGI: 2.79 µM
NCI-H23 [16]
  TGI: 3.26 µM
NCI-H522 [17]
  TGI: 2.07 µM
KM12 [18]
  TGI: 4.59 µM
SW-620 [19]
  TGI: 15.6 µM
SF-268 [20]
  TGI: 34.2 µM
SNB-19
  TGI: 28.1 µM
SK-MEL-2
  TGI: 40.6 µM
SK-MEL-28 [21]
  TGI: 19.6 µM
SK-MEL-5 [22]
  TGI: 10.2 µM
RXF 393
  TGI: 4.19 µM
PC-3 [23]
  TGI: 38.1 µM
DU-145 [24]
  TGI: 24.4 µM
Hs-578T
  TGI: 27.2 µM
CCRF-CEM [25]
  CC50: > 100 µM
K562 [26]
  CC50: > 100 µM
MOLT-4
  CC50: > 100 µM
SR [27]
  CC50: > 100 µM
EKVX [28]
  CC50: > 100 µM
HCT-116 [29]
  CC50: 54.2 µM
SW-620 [30]
  CC50: > 100 µM
SF-268 [31]
  CC50: > 100 µM
SF-539
  CC50: 35 µM
SK-MEL-28 [32]
  CC50: 65.8 µM
OVCAR-3
  CC50: 62.6 µM
NCI/ADR-RES [33]
  CC50: > 100 µM
SK-OV-3
  CC50: > 100 µM
786-0
  CC50: 68 µM
CAKI-1
  CC50: > 100 µM
DU-145 [34]
  CC50: > 100 µM
MCF7
  CC50: > 100 µM
BT-549 [35]
  CC50: > 100 µM
T47D
  CC50: > 100 µM
